These results are taken from ChEMBL document CHEMBL4321812, “Structure-based rational design of staurosporine-based fluorescent probe with broad-ranging kinase affinity for kinase panel application” (Bioorg Med Chem Lett, 2019).

pKd: −log10 of the molar value.

Experiment [1] addresses Protein kinase C delta type (Homo sapiens, UniProt Q05655). The experiment can be described thus: Binding affinity to recombinant human full length N-terminal GST-tagged PRKCD expressed in baculovirus expression system using PKC peptide as substrate incubated for 1 hr by TR-FRET assay. On the technique in general: TR-FRET usually uses a lanthanide donor and a delayed reading to cut background.

For experiment [2], the target named is Ribosomal protein S6 kinase beta-1 (Homo sapiens, UniProt P23443, T412E). In words: Binding affinity to recombinant human full length N-terminal GST-tagged RPS6KB1 T412E mutant expressed in baculovirus expression system using S6K2 peptide as substrate incubated for 1 hr by TR-FRET assay.
Ribosomal protein S6 kinase beta-1, sequence (P23443 whole entry T412E): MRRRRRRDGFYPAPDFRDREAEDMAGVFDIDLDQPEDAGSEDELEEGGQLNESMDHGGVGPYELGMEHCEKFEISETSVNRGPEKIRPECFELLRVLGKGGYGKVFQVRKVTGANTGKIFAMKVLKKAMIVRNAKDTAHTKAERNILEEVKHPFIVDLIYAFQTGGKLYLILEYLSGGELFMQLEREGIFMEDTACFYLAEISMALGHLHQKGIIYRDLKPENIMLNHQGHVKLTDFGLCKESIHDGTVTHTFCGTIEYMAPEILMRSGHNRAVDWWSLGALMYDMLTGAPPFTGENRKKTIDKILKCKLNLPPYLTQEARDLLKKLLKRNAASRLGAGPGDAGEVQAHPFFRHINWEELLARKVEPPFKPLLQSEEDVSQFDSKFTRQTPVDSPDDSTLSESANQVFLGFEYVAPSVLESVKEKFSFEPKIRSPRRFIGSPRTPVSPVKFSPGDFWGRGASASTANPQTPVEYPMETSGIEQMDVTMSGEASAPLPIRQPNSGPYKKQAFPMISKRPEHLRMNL
In experiment [3] the target is Rhodopsin kinase GRK1 (Homo sapiens, UniProt Q15835). The experiment can be described thus: Binding affinity to recombinant full-length N-terminal His-FLAG-GST-tagged GRK1 (unknown origin) expressed in baculovirus infected Sf9 insect cells incubated for 1 hr by TR-FRET assay.
Experiment [4] deals with Aurora kinase A (Homo sapiens, UniProt O14965). The experiment can be described thus: Binding affinity to recombinant full-length N-terminal His-FLAG-GST-tagged AURKA (unknown origin) expressed in baculovirus infected Sf9 insect cells incubated for 1 hr by TR-FRET assay.
Aurora kinase A, sequence (O14965 whole entry, the tested form may be a part): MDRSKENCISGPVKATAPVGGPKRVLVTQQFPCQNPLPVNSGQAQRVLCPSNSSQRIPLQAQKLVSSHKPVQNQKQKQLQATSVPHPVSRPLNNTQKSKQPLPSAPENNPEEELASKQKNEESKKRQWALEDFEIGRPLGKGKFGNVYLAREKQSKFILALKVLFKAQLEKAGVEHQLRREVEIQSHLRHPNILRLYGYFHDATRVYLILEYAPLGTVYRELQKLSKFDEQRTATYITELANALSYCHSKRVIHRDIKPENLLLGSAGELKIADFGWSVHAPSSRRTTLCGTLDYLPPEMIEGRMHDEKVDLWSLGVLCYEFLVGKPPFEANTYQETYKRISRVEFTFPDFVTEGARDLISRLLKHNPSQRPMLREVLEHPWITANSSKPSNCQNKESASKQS
The target of experiment [5] is Mitogen-activated protein kinase kinase kinase 14 (Homo sapiens, UniProt Q99558). The experiment can be described thus: Binding affinity to recombinant N-terminal His-FLAG-GST-tagged MAP3K14 (unknown origin) (319 to 947 residues) expressed in baculovirus infected Sf9 insect cells incubated for 1 hr by TR-FRET assay.
Experiment [6] addresses Non-receptor tyrosine-protein kinase TNK1 (Homo sapiens, UniProt Q13470). The experiment can be described thus: Binding affinity to recombinant human N-terminal GST-tagged TNK1 (106 to 390 residues) expressed in baculovirus expression system using CSKtide as substrate incubated for 1 hr by TR-FRET assay.
For experiment [7], the target named is Serine/threonine-protein kinase 24 (Homo sapiens, UniProt Q9Y6E0). In words: Binding affinity to recombinant full-length N-terminal His-FLAG-tagged STK24 (unknown origin) expressed in baculovirus infected Sf9 insect cells incubated for 1 hr by TR-FRET assay.
The target in experiment [8] is Citron Rho-interacting kinase (Homo sapiens, UniProt O14578). The experiment can be described thus: Binding affinity to recombinant full-length N-terminal His-FLAG-GST-tagged CIT (unknown origin) (1 to 449 residues) expressed in baculovirus infected Sf9 insect cells incubated for 1 hr by TR-FRET assay.
Experiment [9] concerns the target Leukocyte tyrosine kinase receptor (Homo sapiens, UniProt P29376). The experiment can be described thus: Binding affinity to recombinant full-length N-terminal His-FLAG-GST-tagged LTK (unknown origin) (498 to 796 residues) expressed in baculovirus infected Sf9 insect cells incubated for 1 hr by TR-FRET assay.
The target in experiment [10] is cAMP-dependent protein kinase catalytic subunit gamma (Homo sapiens, UniProt P22612). In words: Binding affinity to recombinant full-length N-terminal His-FLAG-GST-tagged PRKACG (unknown origin) expressed in baculovirus infected Sf9 insect cells incubated for 1 hr by TR-FRET assay.
In experiment [11] the target is Phosphorylase b kinase gamma catalytic chain, skeletal muscle/heart isoform (Homo sapiens, UniProt Q16816). In words: Binding affinity to recombinant full-length N-terminal His-FLAG-GST-tagged PHKG1 (unknown origin) expressed in baculovirus infected Sf9 insect cells incubated for 1 hr by TR-FRET assay.
Experiment [12] deals with Testis-specific serine/threonine-protein kinase 3 (Homo sapiens, UniProt Q96PN8). In words: Binding affinity to recombinant full-length N-terminal His-FLAG-GST-tagged TSSK3 (unknown origin) expressed in baculovirus infected Sf9 insect cells incubated for 1 hr by TR-FRET assay.
The target in experiment [13] is Cyclin-C/Cyclin-dependent kinase 19 (Homo sapiens, UniProt Q9BWU1). The experiment can be described thus: Binding affinity to recombinant human full length N-terminal GST-tagged CDK19 co-expressed with N-terminal GST-tagged CyclinC expressed in baculovirus expression system using RNA polymerase peptide as substrate incubated for 1 hr by TR-FRET assay.
Experiment [14] has as its target Mitogen-activated protein kinase kinase kinase kinase 5 (Homo sapiens, UniProt Q9Y4K4). In words: Binding affinity to recombinant full-length N-terminal His-FLAG-GST-tagged MAP4K5 (unknown origin) expressed in baculovirus infected Sf9 insect cells incubated for 1 hr by TR-FRET assay.
Experiment [15] concerns the target Tyrosine-protein kinase JAK3 (Homo sapiens, UniProt P52333). In words: Binding affinity to recombinant full-length N-terminal His-FLAG-GST-tagged JAK3 (unknown origin) (795 to 1124 residues) expressed in baculovirus infected Sf9 insect cells incubated for 1 hr by TR-FRET assay.
The target of experiment [16] is Tyrosine-protein kinase SYK (Homo sapiens, UniProt P43405). In words: Binding affinity to recombinant human full-length N-terminal GST-tagged SYK expressed in baculovirus expression system using Blk/Lyntide as substrate incubated for 1 hr by TR-FRET assay.
In experiment [17] the target is cAMP-dependent protein kinase catalytic subunit beta (Homo sapiens, UniProt P22694). The experiment can be described thus: Binding affinity to recombinant full-length N-terminal His-FLAG-GST-tagged PRKACB (unknown origin) expressed in baculovirus infected Sf9 insect cells incubated for 1 hr by TR-FRET assay.
Experiment [18] concerns the target Ribosomal protein S6 kinase alpha-5 (Homo sapiens, UniProt O75582). In words: Binding affinity to recombinant full-length N-terminal His-FLAG-GST-tagged RPS6KA5 (unknown origin) expressed in baculovirus infected Sf9 insect cells incubated for 1 hr by TR-FRET assay.
Experiment [19] concerns the target Serine/threonine-protein kinase 16 (Homo sapiens, UniProt O75716). In words: Binding affinity to recombinant full-length N-terminal His-FLAG-GST-tagged STK16 (unknown origin) expressed in baculovirus infected Sf9 insect cells incubated for 1 hr by TR-FRET assay.
The target in experiment [20] is Mitogen-activated protein kinase kinase kinase kinase 2 (Homo sapiens, UniProt Q12851). The experiment can be described thus: Binding affinity to recombinant full-length N-terminal His-FLAG-GST-tagged MAP4K2 (unknown origin) expressed in baculovirus infected Sf9 insect cells incubated for 1 hr by TR-FRET assay.
Mitogen-activated protein kinase kinase kinase kinase 2, sequence (Q12851 whole entry, the tested form may be a part): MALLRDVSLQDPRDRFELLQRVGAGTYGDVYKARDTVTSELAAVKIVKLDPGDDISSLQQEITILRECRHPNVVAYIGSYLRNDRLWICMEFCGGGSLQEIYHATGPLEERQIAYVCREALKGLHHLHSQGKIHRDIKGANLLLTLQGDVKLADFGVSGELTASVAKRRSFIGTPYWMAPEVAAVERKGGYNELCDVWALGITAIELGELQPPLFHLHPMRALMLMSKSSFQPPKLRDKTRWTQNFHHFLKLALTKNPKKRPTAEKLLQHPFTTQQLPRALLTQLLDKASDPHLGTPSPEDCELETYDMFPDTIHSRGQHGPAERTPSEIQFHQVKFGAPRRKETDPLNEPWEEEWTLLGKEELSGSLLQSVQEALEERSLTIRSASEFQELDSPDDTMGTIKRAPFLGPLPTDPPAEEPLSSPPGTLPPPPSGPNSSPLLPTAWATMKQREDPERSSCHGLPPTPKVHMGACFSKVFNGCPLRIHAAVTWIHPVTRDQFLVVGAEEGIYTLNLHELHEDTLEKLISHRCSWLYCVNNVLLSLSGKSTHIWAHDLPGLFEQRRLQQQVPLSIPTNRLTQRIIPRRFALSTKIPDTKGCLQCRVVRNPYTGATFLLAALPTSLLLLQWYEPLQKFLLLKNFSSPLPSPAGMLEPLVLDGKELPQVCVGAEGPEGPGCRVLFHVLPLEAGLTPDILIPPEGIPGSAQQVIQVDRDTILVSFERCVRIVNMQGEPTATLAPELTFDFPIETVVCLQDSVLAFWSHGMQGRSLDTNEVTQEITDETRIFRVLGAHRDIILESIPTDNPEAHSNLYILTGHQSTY
In experiment [21] the target is Ephrin type-A receptor 7 (Homo sapiens, UniProt Q15375). The experiment can be described thus: Binding affinity to recombinant N-terminal His-FLAG-GST-tagged EPHA7 (unknown origin) ( 595 to 998 residues) expressed in baculovirus infected Sf9 insect cells incubated for 1 hr by TR-FRET assay.
Experiment [22] concerns the target MAP kinase-interacting serine/threonine-protein kinase 2 (Homo sapiens, UniProt Q9HBH9). The experiment can be described thus: Binding affinity to recombinant human full-length N-terminal GST-tagged MKNK2 expressed in baculovirus expression system using RS peptide as substrate incubated for 1 hr by TR-FRET assay.
The target of experiment [23] is Serine/threonine-protein kinase TBK1 (Homo sapiens, UniProt Q9UHD2). The experiment can be described thus: Binding affinity to recombinant human full length N-terminal GST-tagged TBK1 expressed in baculovirus expression system using CKtide as substrate incubated for 1 hr by TR-FRET assay.
Serine/threonine-protein kinase TBK1, sequence (Q9UHD2 whole entry): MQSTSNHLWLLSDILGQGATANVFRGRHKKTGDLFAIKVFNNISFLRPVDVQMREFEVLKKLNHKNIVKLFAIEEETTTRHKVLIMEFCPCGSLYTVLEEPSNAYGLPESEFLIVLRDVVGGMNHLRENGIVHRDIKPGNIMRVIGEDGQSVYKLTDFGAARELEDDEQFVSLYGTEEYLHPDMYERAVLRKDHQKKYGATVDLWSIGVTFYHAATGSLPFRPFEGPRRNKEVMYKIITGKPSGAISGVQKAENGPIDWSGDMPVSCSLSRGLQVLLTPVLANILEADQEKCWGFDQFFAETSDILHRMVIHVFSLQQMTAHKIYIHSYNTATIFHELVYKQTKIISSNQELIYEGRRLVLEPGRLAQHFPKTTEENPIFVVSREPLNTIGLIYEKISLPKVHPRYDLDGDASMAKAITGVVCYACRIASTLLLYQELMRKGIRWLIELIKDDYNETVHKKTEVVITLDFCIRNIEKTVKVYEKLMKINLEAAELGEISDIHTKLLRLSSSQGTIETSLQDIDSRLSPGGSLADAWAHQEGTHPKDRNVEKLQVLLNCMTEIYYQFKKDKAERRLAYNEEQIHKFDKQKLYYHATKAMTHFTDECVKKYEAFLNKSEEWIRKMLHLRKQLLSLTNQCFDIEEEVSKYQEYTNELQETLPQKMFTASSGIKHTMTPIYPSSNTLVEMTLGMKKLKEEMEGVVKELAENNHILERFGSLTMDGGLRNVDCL
Experiment [24] has as its target MAP/microtubule affinity-regulating kinase 4 (Homo sapiens, UniProt Q96L34). In words: Binding affinity to recombinant full-length N-terminal His-FLAG-tagged MARK4 (unknown origin) expressed in baculovirus infected Sf9 insect cells incubated for 1 hr by TR-FRET assay.

Ribosomal protein S6 kinase alpha-5, sequence (O75582 whole entry): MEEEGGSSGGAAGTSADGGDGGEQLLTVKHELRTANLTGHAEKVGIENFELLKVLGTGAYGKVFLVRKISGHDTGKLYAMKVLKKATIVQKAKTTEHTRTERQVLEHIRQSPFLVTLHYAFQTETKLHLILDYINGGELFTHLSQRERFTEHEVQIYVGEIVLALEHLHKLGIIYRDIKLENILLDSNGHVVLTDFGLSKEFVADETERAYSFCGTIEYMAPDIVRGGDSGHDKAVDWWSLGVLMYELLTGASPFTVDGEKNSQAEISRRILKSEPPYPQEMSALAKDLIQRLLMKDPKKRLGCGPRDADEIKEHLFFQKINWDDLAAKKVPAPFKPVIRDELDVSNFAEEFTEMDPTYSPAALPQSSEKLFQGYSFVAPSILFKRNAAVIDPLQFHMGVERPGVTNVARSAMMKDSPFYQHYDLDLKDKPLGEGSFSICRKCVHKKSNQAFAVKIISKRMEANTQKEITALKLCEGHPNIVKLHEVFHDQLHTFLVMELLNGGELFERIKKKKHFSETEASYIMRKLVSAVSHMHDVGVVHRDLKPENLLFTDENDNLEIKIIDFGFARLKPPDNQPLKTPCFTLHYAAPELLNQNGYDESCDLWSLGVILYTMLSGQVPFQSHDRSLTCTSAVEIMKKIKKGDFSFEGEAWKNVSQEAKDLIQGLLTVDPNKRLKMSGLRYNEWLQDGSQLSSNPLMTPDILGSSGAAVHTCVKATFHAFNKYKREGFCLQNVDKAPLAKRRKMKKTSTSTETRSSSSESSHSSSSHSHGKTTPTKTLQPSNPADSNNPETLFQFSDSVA
Mitogen-activated protein kinase kinase kinase kinase 5, sequence (Q9Y4K4 whole entry, the tested form may be a part): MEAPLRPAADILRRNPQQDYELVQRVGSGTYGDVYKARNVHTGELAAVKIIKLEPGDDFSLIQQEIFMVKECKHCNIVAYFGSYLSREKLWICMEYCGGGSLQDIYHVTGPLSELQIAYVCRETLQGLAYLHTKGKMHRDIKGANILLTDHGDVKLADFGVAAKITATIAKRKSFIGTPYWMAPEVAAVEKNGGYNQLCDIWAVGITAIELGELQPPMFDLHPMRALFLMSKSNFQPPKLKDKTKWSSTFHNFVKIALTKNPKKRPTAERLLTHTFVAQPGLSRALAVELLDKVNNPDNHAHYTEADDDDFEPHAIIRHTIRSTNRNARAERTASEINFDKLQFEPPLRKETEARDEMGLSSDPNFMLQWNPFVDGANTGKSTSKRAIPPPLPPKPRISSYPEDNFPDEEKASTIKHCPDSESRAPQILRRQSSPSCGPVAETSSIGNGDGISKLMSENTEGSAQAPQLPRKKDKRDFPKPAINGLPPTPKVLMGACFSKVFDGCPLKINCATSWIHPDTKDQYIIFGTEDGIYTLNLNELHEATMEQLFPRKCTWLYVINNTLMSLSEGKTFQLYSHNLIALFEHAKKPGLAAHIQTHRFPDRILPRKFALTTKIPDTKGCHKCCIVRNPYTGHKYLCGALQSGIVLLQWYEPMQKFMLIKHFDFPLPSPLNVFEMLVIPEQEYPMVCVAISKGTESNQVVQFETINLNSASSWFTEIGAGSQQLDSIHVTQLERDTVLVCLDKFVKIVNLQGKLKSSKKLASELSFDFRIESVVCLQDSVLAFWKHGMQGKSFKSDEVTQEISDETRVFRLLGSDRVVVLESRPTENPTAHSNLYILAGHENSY
Leukocyte tyrosine kinase receptor, sequence (P29376 whole entry, the tested form may be a part): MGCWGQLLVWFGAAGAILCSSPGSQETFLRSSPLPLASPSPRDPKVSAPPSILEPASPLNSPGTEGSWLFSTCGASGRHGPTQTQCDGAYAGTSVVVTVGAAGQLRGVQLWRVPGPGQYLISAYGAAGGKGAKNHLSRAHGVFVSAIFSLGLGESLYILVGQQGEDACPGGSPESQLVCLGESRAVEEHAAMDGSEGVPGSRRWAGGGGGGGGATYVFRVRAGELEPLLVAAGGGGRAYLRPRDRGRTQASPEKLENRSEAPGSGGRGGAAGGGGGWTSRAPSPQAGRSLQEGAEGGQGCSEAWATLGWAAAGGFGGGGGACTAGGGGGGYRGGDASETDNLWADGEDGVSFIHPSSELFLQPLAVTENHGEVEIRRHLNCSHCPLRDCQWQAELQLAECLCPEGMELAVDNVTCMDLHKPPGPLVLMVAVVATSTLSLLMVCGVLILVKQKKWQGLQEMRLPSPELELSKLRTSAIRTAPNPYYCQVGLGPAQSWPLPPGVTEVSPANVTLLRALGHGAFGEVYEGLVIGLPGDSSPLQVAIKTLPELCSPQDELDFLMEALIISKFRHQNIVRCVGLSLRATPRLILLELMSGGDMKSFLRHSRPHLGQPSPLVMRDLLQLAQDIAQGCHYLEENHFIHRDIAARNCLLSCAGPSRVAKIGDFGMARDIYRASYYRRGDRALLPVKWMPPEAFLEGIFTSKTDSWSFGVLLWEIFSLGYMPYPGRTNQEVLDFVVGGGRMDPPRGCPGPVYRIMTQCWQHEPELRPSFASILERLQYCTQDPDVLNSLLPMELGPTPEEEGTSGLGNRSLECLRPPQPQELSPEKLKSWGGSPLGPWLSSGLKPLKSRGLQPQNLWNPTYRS

The term pKd denotes the negative decadic logarithm of the Kd, by convention in mol/L. `CO[C@@H]1[C@H](N(C)CCOCCOCCOCCNC(=O)CCC2=[N+]3C(=Cc4c(C)cc(C)n4[B-]3(F)F)C=C2)C[C@H]2O[C@]1(C)n1c3ccccc3c3c4c(c5c6ccccc6n2c5c31)C(=O)NC4`: the pKd in experiment [1] was 8.52; in experiment [2], 7.89; in [3], 6.96; in experiment [4], 7.29; in experiment [5], 6.35; in experiment [6] it was 7.89. Besides, the pKd in experiment [7] was 6.12; in experiment [8], 6.15; in experiment [9] it was 6.71; in [10] it was 6.81; in experiment [11] it was 8.52; in [12], 6.48. For the same molecule, the pKd in experiment [13] is 6.90; in experiment [14] it was 6.42; in experiment [15], 7.89; in [16], 7.39; in [17] it was 7.18; in experiment [18], 6.60. Further, the pKd in experiment [19] is 6.96; in [20], 8.15; in experiment [21] it was 6.05; in [22], 6.69; in [23] it was 8.05.
Take `CO[C@@H]1[C@H](NCCOCCOCCOCCNC(=O)CCC2=[N+]3C(=Cc4c(C)cc(C)n4[B-]3(F)F)C=C2)C[C@H]2O[C@]1(C)n1c3ccccc3c3c4c(c5c6ccccc6n2c5c31)C(=O)NC4`: the negative-log Kd (pKd) is 7.89 in experiment [1]; 7.40 in [2]; 6.91 in experiment [3]; 7.35 in [4]; 6.45 in experiment [5]; 8.40 in [6]. Further, the pKd in [7] was 6.36; in [8], 6.13; in experiment [9] it was 6.71; in experiment [10], 6.83; in experiment [11] it was 9.00; in experiment [12] it was 6.42. Moreover, the pKd in experiment [13] was 6.59; in experiment [24], 8.22; in experiment [14], 7.06; in experiment [15] it was 7.85; in experiment [16], 7.59; in experiment [17], 7.19. Further, the pKd was 6.46 in experiment [18]; 6.44 in [19]; 8.22 in [20]; 6.12 in [21]; 6.79 in experiment [22]; 7.77 in experiment [23].
